# Literature values in US20030166469A1, “Crop harvesting method using a 1,2,4-triazol-1-ylpropanoic acid and derivatives” (priority 2001, published 2003).
# Tested on: cotton
# Details: tested alone, no adjuvant; data of U.S. Pat. No. 6,444,613
smiles,measurement,value
"CCOC(=O)C(Cl)Cc1cc(-n2nc(C)n(C(F)F)c2=O)c(F)cc1Cl (stereo not drawn) [Compound Ic, ethyl α,2-dichloro-5-[4-(difluoromethyl)-4,5-dihydro-3-methyl-5-oxo-1H-1,2,4-triazol-1-yl]-4-fluoropropanoate]",defoliation of cotton,≤ 29%
